Measured values reported in patent publication US10131652B2, “Pyrimidinyloxy benzene derivatives as herbicides” (E. I. DU PONT DE NEMOURS AND COMPANY, priority 2014, dated 2018).
Like-named read-outs stand apart in the source and are kept apart here.

What was measured:
Assay type in all cases: in vivo
[1] = system: barnyardgrass (Echinochloa crus-galli); assay: Test D flooded paddy test plant response; settings: Flood (flooded paddy test), visual rating on scale 0 to 100 (0 no effect, 100 complete control), 13 to 15 days
From the text: (§1) Plant species in the flooded paddy test consisted of rice (Oryza sativa), small-flower umbrella sedge (Cyperus difformis), ducksalad (Heteranthera limosa), and bamyardgrass (Echinochloa crus-galli) grown to the 2-leaf stage for testing. At time of treatment, test pots were flooded to 3 cm above the soil surface, treated by application of test compounds directly to the paddy water, and then maintained at that water depth for the duration of the test. Treated plants and controls were maintained in a greenhouse for 13 to 15 days, after which time all species were compared to controls and visually evaluated. Plant response ratings, summarized in Table D, are based on a scale of 0 to 100 where 0 is no effect and 100 is complete control. A dash (-) response means no test result.

[2] = system: ducksalad (Heteranthera limosa); assay: Test D flooded paddy test plant response; settings: Flood (flooded paddy test), visual rating on scale 0 to 100 (0 no effect, 100 complete control), 13 to 15 days
From the text: as §1

rice (Oryza sativa) = assay: Test D flooded paddy test plant response; settings: Flood (flooded paddy test), visual rating on scale 0 to 100 (0 no effect, 100 complete control), 13 to 15 days
From the text: as §1

[3] = system: small-flower umbrella sedge (Cyperus difformis); assay: Test D flooded paddy test plant response; settings: Flood (flooded paddy test), visual rating on scale 0 to 100 (0 no effect, 100 complete control), 13 to 15 days
From the text: as §1

[4] = system: field violet (Viola arvensis); assay: Test E pre-/postemergence plant response; settings: scale 0 to 100, read-out: Plant response rating, Field Violet; for pest or weed control at 31 g/ha: 31 g ai/ha; for pest or weed control at 125 g/ha: 125 g ai/ha
From the text: (§2) Seeds of plant species selected from bluegrass (annual bluegrass, Poa annua), blackgrass (Alopecurus myosuroides), canarygrass (Phalaris minor), chickweed (common chickweed, Stellaria media), galium (catchweed bedstraw, Galium aparine), downy bromegrass (Bromus tectorum), field poppy (Papaver rhoeas), field violet (Viola arvensis), green foxtail (Setaria viridis), deadnettle (henbit deadnettle, Lamium amplexicaule), Italian ryegrass (Lolium multiflorum), kochia (Kochia scoparia), lambsquarters (Chenopodium album), oilseed rape (Brassica napus), pigweed (Amaranthus retroflexus), Russian thistle (Salsola iberica), chamomile (scentless chamomile, Matricaria inodora), speedwell (bird's-eye speedwell, Veronica persica), spring barley (Hordeum vulgare), spring wheat (Triticum aestivum), wild buckwheat (Polygonum convolvulus), wild mustard (Sinapis arvensis), wild oat (Avena fatua), wild radish (Raphanus raphanistrum), windgrass (Apera spica-venti), winter barley (Hordeum vulgare), and winter wheat (Triticum aestivum) were planted into a silt loam soil and treated preemergence with test chemicals formulated in a non-phytotoxic solvent mixture which included a surfactant. At the same time, these species were planted in pots containing Redi-Earth® planting medium (Scotts Company, 14111 Scottslawn Road, Marysville, Ohio 43041) comprising spaghnum peat moss, vermiculite, wetting agent and starter nutrients and treated with postemergence applications of the test chemicals formulated in the same manner. Plants ranged in height from 2 to 18 cm (1- to 4-leaf stage).
(§3) Treated plants and controls were maintained in a controlled growth environment for 7 to 21 days after which time all species were compared to controls and visually evaluated. Plant response ratings, summarized in Table E, are based on a scale of 0 to 100 where 0 is no effect and 100 is complete control. A dash (-) response means no test result.

[5] = system: green foxtail (Setaria viridis); assay: Test E pre-/postemergence plant response; settings: scale 0 to 100, read-out: Plant response rating, Foxtail, Green; for pest or weed control at 31 g/ha: 31 g ai/ha; for pest or weed control at 62 g/ha: 62 g ai/ha; for pest or weed control at 125 g/ha: 125 g ai/ha
From the text: as §2, §3

[6] = system: oilseed rape (Brassica napus); assay: Test E pre-/postemergence plant response; settings: scale 0 to 100, read-out: Plant response rating, Oilseed Rape; for plant injury at 16 g/ha: 16 g ai/ha; for plant injury at 31 g/ha: 31 g ai/ha; for plant injury at 62 g/ha: 62 g ai/ha; for plant injury at 125 g/ha: 125 g ai/ha
From the text: as §2, §3

[7] = system: speedwell (bird's-eye speedwell, Veronica persica); assay: Test E pre-/postemergence plant response; settings: scale 0 to 100, read-out: Plant response rating, Speedwell; for pest or weed control at 16 g/ha: 16 g ai/ha; for pest or weed control at 62 g/ha: 62 g ai/ha; for pest or weed control at 125 g/ha: 125 g ai/ha
From the text: as §2, §3

[8] = system: wild buckwheat (Polygonum convolvulus); assay: Test E pre-/postemergence plant response; settings: Fallopia convolvulus, scale 0 to 100, read-out: Plant response rating, Buckwheat, Wild; for pest or weed control at 16 g/ha: 16 g ai/ha; for pest or weed control at 31 g/ha: 31 g ai/ha; for pest or weed control at 62 g/ha: 62 g ai/ha; for pest or weed control at 125 g/ha: 125 g ai/ha
From the text: as §2, §3

[9] = system: wild mustard (Sinapis arvensis); assay: Test E pre-/postemergence plant response; settings: Brassica, scale 0 to 100, read-out: Plant response rating, Mustard, Wild; for pest or weed control at 16 g/ha: 16 g ai/ha; for pest or weed control at 31 g/ha: 31 g ai/ha; for pest or weed control at 62 g/ha: 62 g ai/ha; for pest or weed control at 125 g/ha: 125 g ai/ha
From the text: as §2, §3

wild oat (Avena fatua) = assay: Test E pre-/postemergence plant response; settings: scale 0 to 100, read-out: Plant response rating, Oat, Wild; for pest or weed control at 16 g/ha: 16 g ai/ha; for pest or weed control at 31 g/ha: 31 g ai/ha; for pest or weed control at 62 g/ha: 62 g ai/ha; for pest or weed control at 125 g/ha: 125 g ai/ha
From the text: as §2, §3

[10] = post-emergence, 16 g ai/ha, Postemergence

Q: Which “Plant response rating, Barnyardgrass” value ([1]; 31 g ai/ha) does the source give for `FCc1cc(-c2ccccc2Oc2ncc(Cl)cn2)no1` [Compound 32, 5-chloro-2-[2-[5-(fluoromethyl)-3-isoxazolyl]phenoxy]pyrimidine] here?
A: The value was 0.

Q: What about the “Plant response rating, Barnyardgrass” value ([1]; 62 g ai/ha) of the same molecule?
A: The value was 0.

Q: What about the “Plant response rating, Barnyardgrass” value ([1]; 125 g ai/ha) of the same molecule?
A: The value was 10.

Q: What about the “Plant response rating, Barnyardgrass” value ([1]; 250 g ai/ha) of the same molecule?
A: Its value is 20.

Q: What about the “Plant response rating, Ducksalad” value ([2]; 31 g ai/ha) of the same molecule?
A: Its value is 0.

Q: And the “Plant response rating, Ducksalad” value ([2]; 62 g ai/ha)?
A: Its value is 60.

Q: And the “Plant response rating, Ducksalad” value ([2]; 125 g ai/ha)?
A: The value was 65.

Q: What about the “Plant response rating, Ducksalad” value ([2]; 250 g ai/ha) of the same molecule?
A: The value was 95.

Q: And the “Plant response rating, Rice” value (rice (Oryza sativa); 31 g ai/ha)?
A: The value was 0.

Q: And the “Plant response rating, Rice” value (rice (Oryza sativa); 62 g ai/ha)?
A: The value was 0.

Q: And the “Plant response rating, Rice” value (rice (Oryza sativa); 125 g ai/ha)?
A: The value was 0.

Q: What about the “Plant response rating, Rice” value (rice (Oryza sativa); 250 g ai/ha) of the same molecule?
A: The value was 15.

Q: And the “Plant response rating, Sedge, Umbrella” value ([3]; 31 g ai/ha)?
A: The value was 0.

Q: And the “Plant response rating, Sedge, Umbrella” value ([3]; 62 g ai/ha)?
A: The value was 40.

Q: What about the “Plant response rating, Sedge, Umbrella” value ([3]; 125 g ai/ha) of the same molecule?
A: Its value is 65.

Q: And the “Plant response rating, Sedge, Umbrella” value ([3]; 250 g ai/ha)?
A: Its value is 90.

Q: What does the source list for `FC(F)(F)c1cc(-c2ccccc2Oc2ncc(Cl)cn2)no1` [Compound 200, 5-chloro-2-[2-[5-(trifluoromethyl)-3-isoxazolyl]phenoxy]pyrimidine]?
A: pest or weed control at 16 g/ha [4, 10]: 70%; pest or weed control at 31 g/ha ([4]; post-emergence, Postemergence): 80%; pest or weed control at 62 g/ha ([4]; post-emergence, 62 g ai/ha, Postemergence): 75%; pest or weed control at 125 g/ha ([4]; post-emergence, Postemergence): 95%; pest or weed control at 31 g/ha ([4]; pre-emergence, Preemergence): 50%; pest or weed control at 125 g/ha ([4]; pre-emergence, Preemergence): 100%; pest or weed control at 16 g/ha [5, 10]: 25%; pest or weed control at 31 g/ha ([5]; post-emergence, Postemergence): 35%; pest or weed control at 62 g/ha ([5]; post-emergence, Postemergence): 45%; pest or weed control at 125 g/ha ([5]; post-emergence, Postemergence): 55%; pest or weed control at 31 g/ha ([5]; pre-emergence, Preemergence): 25%; pest or weed control at 62 g/ha ([5]; pre-emergence, Preemergence): 100%; pest or weed control at 125 g/ha ([5]; pre-emergence, Preemergence): 100%; plant injury at 16 g/ha ([6]; post-emergence, Postemergence): 75%; plant injury at 31 g/ha ([6]; post-emergence, Postemergence): 85%; plant injury at 62 g/ha ([6]; post-emergence, Postemergence): 100%; plant injury at 125 g/ha ([6]; post-emergence, Postemergence): 100%; plant injury at 16 g/ha ([6]; pre-emergence, Preemergence): 60%; plant injury at 31 g/ha ([6]; pre-emergence, Preemergence): 100%; plant injury at 62 g/ha ([6]; pre-emergence, Preemergence): 100%; plant injury at 125 g/ha ([6]; pre-emergence, Preemergence): 100%; pest or weed control at 16 g/ha ([7]; post-emergence, Postemergence): 70%; pest or weed control at 31 g/ha ([7]; post-emergence, 31 g ai/ha, Postemergence): 100%; pest or weed control at 62 g/ha ([7]; post-emergence, Postemergence): 100%; pest or weed control at 125 g/ha ([7]; post-emergence, Postemergence): 100%; pest or weed control at 16 g/ha ([7]; pre-emergence, Preemergence): 100%; pest or weed control at 62 g/ha ([7]; pre-emergence, Preemergence): 100%; pest or weed control at 125 g/ha ([7]; pre-emergence, Preemergence): 100%; pest or weed control at 16 g/ha ([8]; post-emergence, Postemergence): 65%; pest or weed control at 31 g/ha ([8]; post-emergence, Postemergence): 70%; pest or weed control at 62 g/ha ([8]; post-emergence, Postemergence): 95%; pest or weed control at 125 g/ha ([8]; post-emergence, Postemergence): 100%; pest or weed control at 16 g/ha ([8]; pre-emergence, Preemergence): 65%; pest or weed control at 31 g/ha ([8]; pre-emergence, Preemergence): 75%; pest or weed control at 62 g/ha ([8]; pre-emergence, Preemergence): 100%; pest or weed control at 125 g/ha ([8]; pre-emergence, Preemergence): 100%; pest or weed control at 16 g/ha ([9]; post-emergence, Postemergence): 75%; pest or weed control at 31 g/ha ([9]; post-emergence, Postemergence): 95%; pest or weed control at 62 g/ha ([9]; post-emergence, Postemergence): 100%; pest or weed control at 125 g/ha ([9]; post-emergence, Postemergence): 100%; pest or weed control at 16 g/ha ([9]; pre-emergence, Preemergence): 85%; pest or weed control at 31 g/ha ([9]; pre-emergence, Preemergence): 95%; pest or weed control at 62 g/ha ([9]; pre-emergence, Preemergence): 85%; pest or weed control at 125 g/ha ([9]; pre-emergence, Preemergence): 100%; pest or weed control at 16 g/ha (wild oat (Avena fatua); post-emergence, Postemergence): 10%; pest or weed control at 31 g/ha (wild oat (Avena fatua); post-emergence, Postemergence): 20%; pest or weed control at 62 g/ha (wild oat (Avena fatua); post-emergence, Postemergence): 30%; pest or weed control at 125 g/ha (wild oat (Avena fatua); post-emergence, Postemergence): 35%; pest or weed control at 16 g/ha (wild oat (Avena fatua); pre-emergence, Preemergence): 0%; pest or weed control at 31 g/ha (wild oat (Avena fatua); pre-emergence, Preemergence): 0%; pest or weed control at 62 g/ha (wild oat (Avena fatua); pre-emergence, Preemergence): 30%; pest or weed control at 125 g/ha (wild oat (Avena fatua); pre-emergence, Preemergence): 75%
